In brackets after ≈: the same amount, converted by molar mass.
Experiments:
MCF7 [1] = experiment: Cytotoxicity against human MCF7 cells by MTT assay; format: functional, cell-based
MDA-MB-231 = experiment: Cytotoxicity against human MDA-MB-231 cells by MTT assay; format: functional, cell-based
A549 = experiment: Cytotoxicity against human A549 cells by MTT assay; format: functional, cell-based
[2] = target: Cyclin-dependent kinase 1/cyclin B (Homo sapiens, UniProt P06493); experiment: Inhibition of CDK1/Cyclin B (unknown origin) in presence of gamma32P-ATP by scintillation counter analysis; format: protein-complex assay
[3] = target: Dual specificity mitogen-activated protein kinase kinase 1 (Homo sapiens, UniProt Q02750); experiment: Inhibition of MEK1 (unknown origin)
Protein kinase C (PKC) = experiment: Inhibition of Protein kinase C (unknown origin); format: protein assay, Homo sapiens
[4] = target: Cyclin-dependent kinase 5/CDK5 activator 1 (Homo sapiens, UniProt Q00535); experiment: Inhibition of CDK5/p25 (unknown origin); format: protein-complex assay
L5178Y = experiment: Cytotoxicity against mouse L5178Y cells by MTT assay; format: functional, cell-based
Rattus norvegicus [5] = experiment: Antiarthritic activity in adjuvant-induced arthritis rat model assessed as reduction in paw swelling at 20 mg/kg, ip administered for day 6 to 10 post adjuvant measured on day 16 to 20 relative to control; format: functional
Rattus norvegicus [6] = experiment: Antiarthritic activity in adjuvant-induced arthritis rat model assessed as reduction in paw swelling at 10 mg/kg, ip administered for day 6 to 10 post adjuvant measured on day 16 to 20 relative to control; format: functional
Homo sapiens [7] = species: Homo sapiens; experiment: Selectivity ratio of IC50 for Chk1 (unknown origin) to IC50 for (unknown origin)
[8] = target: Serine/threonine-protein kinase Chk1 (Homo sapiens, UniProt O14757); experiment: Inhibition of Chk1 (unknown origin)
[9] = Inhibition of MAPKK (unknown origin); parameters: species or system Homo sapiens
[10] = target: Cyclin-dependent kinase 4/cyclin D1 (Homo sapiens, UniProt P11802); experiment: Inhibition of CDK4/Cyclin D1 (unknown origin); format: protein-complex assay
[11] = target: RAF proto-oncogene serine/threonine-protein kinase (Homo sapiens, UniProt P04049); experiment: Inhibition of c-Raf (unknown origin)
[12] = Inhibition of cAMP-dependent protein kinase (unknown origin); parameters: species or system Homo sapiens
[13] = Inhibition of cGMP-dependent protein kinase (unknown origin); parameters: species or system Homo sapiens
P388 = experiment: Cytotoxicity against mouse P388 cells; format: functional; conditions: read-out: ED50 (the source's name)
[14] = target: Cyclin-dependent kinase 2/cyclin A (Homo sapiens, UniProt P24941); experiment: Inhibition of CDK2/Cyclin A (unknown origin); format: protein-complex assay
Casein kinase I = experiment: Inhibition of CK1 (unknown origin); format: protein assay, Homo sapiens
CDK9/Cyclin T = CDK9/Cyclin T (Homo sapiens, UniProt P50750); experiment: Inhibition of CDK9/Cyclin T (unknown origin); format: protein-complex assay
[15] = target: Dual specificity tyrosine-phosphorylation-regulated kinase 1A (Homo sapiens, UniProt Q13627)
Description: Inhibition of DYRK1A (unknown origin)

CDK1/Cyclin E = CDK1/Cyclin E (Homo sapiens, UniProt P06493); experiment: Inhibition of CDK1/Cyclin E (unknown origin); format: protein-complex assay
CDK3/Cyclin E = CDK3/Cyclin E (Homo sapiens, UniProt Q00526); experiment: Inhibition of CDK3/Cyclin E (unknown origin); format: protein-complex assay
[16] = target: Mitogen-activated protein kinase 3 (Homo sapiens, UniProt P27361); experiment: Inhibition of Erk1 (unknown origin)
Casein kinase 2 = Casein kinase 2 (Homo sapiens, UniProt P67870+P68400+P19784+Q8NEV1); experiment: Inhibition of CK2 (unknown origin); format: protein assay
CDK6/cyclin D2 = CDK6/cyclin D2 (Homo sapiens, UniProt P30279+Q00534); experiment: Inhibition of CDK6/Cyclin D2 (unknown origin); format: protein-complex assay
[17] = target: Proto-oncogene tyrosine-protein kinase Src (Homo sapiens, UniProt P12931); experiment: Inhibition of c-Src (unknown origin)
[18] = target: Tyrosine-protein kinase ABL1 (Homo sapiens, UniProt P00519); experiment: Inhibition of c-abl (unknown origin)
DNA topoisomerase 1 = DNA topoisomerase 1 (Homo sapiens, UniProt P11387); experiment: Inhibition of topoisomerase 1 (unknown origin)
[19] = target: DNA topoisomerase 2-alpha (Homo sapiens, UniProt P11388); experiment: Inhibition of topoisomerase 2 alpha (unknown origin)
KB 3-1 = experiment: Cytotoxicity against human KB-3-1 cells by MTT assay; format: functional, cell-based
[20] = Inhibition of IL-1 stimulated PGE2 production in human rheumatoid synovial fibroblasts; format: functional, cell-based; conditions: Fibroblast
Bos taurus [21] = species: Bos taurus; experiment: Inhibition of Interleukin-1- stimulated proteoglycan degradation in bovine articular cartilage; format: functional; conditions: Cartilage tissue
Bos taurus [22] = species: Bos taurus; experiment: Inhibition of Interleukin-1- stimulated iNOS gene expression in bovine articular cartilage; format: functional; conditions: Cartilage tissue
THP-1 [23] = experiment: Antiinflammatory activity in human THP-1 cells assessed as inhibition of LPS-stimulated IL2 production; format: functional, cell-based
THP-1 [24] = experiment: Antiinflammatory activity in human THP-1 cells assessed as inhibition of LPS-stimulated TNFalpha production; format: functional, cell-based
[25] = system: Human immunodeficiency virus 1; experiment: Antiviral activity against HIV1 assessed as inhibition of LC5-RIC cells infection at 3.1 uM relative to control; format: functional
[26] = target: Human immunodeficiency virus type 1 reverse transcriptase (Human immunodeficiency virus 1) (UniProt Q72547); experiment: Inhibition of HIV1 Reverse transcriptase at 25 uM relative to control
Mus musculus [27] = species: Mus musculus; experiment: Neuroprotective activity in Swiss mouse cortical neurons assessed as increase in cell viability in presence of H2O2 at 10 nM relative to control; format: functional
[28] = target: Mitogen-activated protein kinase kinase kinase 7 (Homo sapiens) (UniProt O43318); experiment: Inhibition of MAP3K7 kinase (unknown origin) at 10 uM relative to control
[29] = target: Glycogen synthase kinase-3 beta (Rattus norvegicus, UniProt P18266); experiment: Inhibition of recombinant recombinant rat GSK3beta using GS-1 peptide as substrate in presence of [gamma-32P]ATP measured after 30 mins incubation by scintillation counting analysis
HepG2 = experiment: Cytotoxicity against human HepG2 cells by MTT assay; format: functional, cell-based
MOLT-3 = experiment: Cytotoxicity against human MOLT-3 cells by MTT assay; format: functional, cell-based
Tubulin = experiment: Inhibition of tubulin polymerization (unknown origin); format: protein-complex assay, Homo sapiens
Homo sapiens [30] = species: Homo sapiens; experiment: Inhibition of MPK (unknown origin) at 10 uM relative to control
[31] = target: Serine/threonine-protein kinase PLK1 (Homo sapiens) (UniProt P53350); experiment: Inhibition of PLK1 (unknown origin) at 10 uM relative to control
[32] = target: Serine/threonine-protein kinase pim-1 (Homo sapiens) (UniProt P11309); experiment: Inhibition of PIM1 (unknown origin) at 10 uM relative to control
[33] = target: Mitogen-activated protein kinase kinase kinase 11 (Homo sapiens) (UniProt Q16584); experiment: Inhibition of MLK3 (unknown origin) at 10 uM relative to control
[34] = target: MAP/microtubule affinity-regulating kinase 3 (Homo sapiens) (UniProt P27448); experiment: Inhibition of MARK3 (unknown origin) at 10 uM relative to control
[35] = target: Aurora kinase B (Homo sapiens) (UniProt Q96GD4); experiment: Inhibition of Aurora B (unknown origin) at 10 uM relative to control
[36] = system: Human immunodeficiency virus 1; experiment: Antiviral activity against HIV1 assessed as inhibition of LC5-RIC cells infection at 50 uM relative to control; format: functional
[37] = Selectivity index, ratio of IC50 for CDK1/Cycline B (unknown origin) to IC50 for GSK3beta (unknown origin)
MCF7 [38] = experiment: Growth inhibition of human MCF7 cells at 1 uM by MTT assay relative to control; format: functional; conditions: read-out: GI
Mus musculus [39] = species: Mus musculus; experiment: Neuroprotective activity in Swiss mouse cortical neurons assessed as increase in cell viability in presence of H2O2 at 1 nM relative to control; format: functional
Rattus norvegicus [40] = experiment: Hypotensive effect in rat vascular smooth muscles assessed as reduction in arterial blood pressure at 5 mg/kg measured after 15 mins; format: functional; conditions: Smooth muscle tissue, 0.25 h

Cyclin-dependent kinase 4/cyclin D1, sequence (P11802 whole entry): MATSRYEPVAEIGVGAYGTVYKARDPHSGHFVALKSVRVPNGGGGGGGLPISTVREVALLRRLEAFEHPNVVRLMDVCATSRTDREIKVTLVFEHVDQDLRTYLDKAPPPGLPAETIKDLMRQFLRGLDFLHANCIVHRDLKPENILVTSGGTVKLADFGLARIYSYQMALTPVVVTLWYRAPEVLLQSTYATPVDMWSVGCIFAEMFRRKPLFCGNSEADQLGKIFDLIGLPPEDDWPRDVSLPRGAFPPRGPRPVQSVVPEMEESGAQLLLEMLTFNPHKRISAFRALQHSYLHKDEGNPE
Cyclin-dependent kinase 4/cyclin D1, sequence (P24385 whole entry, further chain): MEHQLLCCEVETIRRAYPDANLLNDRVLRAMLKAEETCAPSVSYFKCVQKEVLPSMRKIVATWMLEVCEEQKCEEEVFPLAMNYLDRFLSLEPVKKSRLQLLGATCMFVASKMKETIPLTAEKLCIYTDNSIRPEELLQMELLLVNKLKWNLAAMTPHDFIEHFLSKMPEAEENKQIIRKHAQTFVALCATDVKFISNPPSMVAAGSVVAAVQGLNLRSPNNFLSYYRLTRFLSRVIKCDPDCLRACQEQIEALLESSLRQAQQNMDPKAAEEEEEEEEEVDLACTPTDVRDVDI
Cyclin-dependent kinase 5/CDK5 activator 1, sequence (Q00535 whole entry): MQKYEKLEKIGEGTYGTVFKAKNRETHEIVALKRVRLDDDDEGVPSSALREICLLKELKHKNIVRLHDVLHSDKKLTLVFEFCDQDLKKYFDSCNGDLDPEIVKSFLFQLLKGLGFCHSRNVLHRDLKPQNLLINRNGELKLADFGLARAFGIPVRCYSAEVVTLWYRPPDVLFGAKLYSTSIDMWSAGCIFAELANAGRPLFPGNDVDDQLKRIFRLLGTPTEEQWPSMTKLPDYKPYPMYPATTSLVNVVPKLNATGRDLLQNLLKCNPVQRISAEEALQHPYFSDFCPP
Cyclin-dependent kinase 5/CDK5 activator 1, sequence (Q15078 whole entry, further chain): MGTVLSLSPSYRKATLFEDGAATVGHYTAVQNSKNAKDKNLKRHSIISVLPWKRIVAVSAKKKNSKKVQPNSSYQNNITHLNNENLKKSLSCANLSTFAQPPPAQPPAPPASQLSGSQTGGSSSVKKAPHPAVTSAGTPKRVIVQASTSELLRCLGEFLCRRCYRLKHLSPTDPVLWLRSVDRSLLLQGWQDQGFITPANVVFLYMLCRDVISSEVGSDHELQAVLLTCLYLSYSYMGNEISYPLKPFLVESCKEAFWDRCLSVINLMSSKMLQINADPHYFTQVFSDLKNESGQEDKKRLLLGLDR
RAF proto-oncogene serine/threonine-protein kinase, sequence (P04049 whole entry): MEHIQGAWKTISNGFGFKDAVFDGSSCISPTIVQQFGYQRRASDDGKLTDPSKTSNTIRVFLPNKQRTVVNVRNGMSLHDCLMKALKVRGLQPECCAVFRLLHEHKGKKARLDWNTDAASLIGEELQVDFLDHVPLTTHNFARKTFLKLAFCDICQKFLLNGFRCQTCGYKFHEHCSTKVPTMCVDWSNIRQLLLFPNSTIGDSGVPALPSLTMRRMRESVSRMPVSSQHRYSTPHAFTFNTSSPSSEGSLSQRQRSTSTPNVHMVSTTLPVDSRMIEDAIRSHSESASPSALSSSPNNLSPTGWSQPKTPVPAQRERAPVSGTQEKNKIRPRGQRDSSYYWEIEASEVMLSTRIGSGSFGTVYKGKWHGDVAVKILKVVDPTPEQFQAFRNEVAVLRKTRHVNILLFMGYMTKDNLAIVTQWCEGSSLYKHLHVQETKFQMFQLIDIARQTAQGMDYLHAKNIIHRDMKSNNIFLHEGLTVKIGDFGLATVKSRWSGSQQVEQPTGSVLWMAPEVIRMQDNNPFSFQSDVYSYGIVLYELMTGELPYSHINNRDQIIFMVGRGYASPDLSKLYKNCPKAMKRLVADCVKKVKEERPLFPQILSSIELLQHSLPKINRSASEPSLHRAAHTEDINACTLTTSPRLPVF
Glycogen synthase kinase-3 beta, sequence (P18266 whole entry): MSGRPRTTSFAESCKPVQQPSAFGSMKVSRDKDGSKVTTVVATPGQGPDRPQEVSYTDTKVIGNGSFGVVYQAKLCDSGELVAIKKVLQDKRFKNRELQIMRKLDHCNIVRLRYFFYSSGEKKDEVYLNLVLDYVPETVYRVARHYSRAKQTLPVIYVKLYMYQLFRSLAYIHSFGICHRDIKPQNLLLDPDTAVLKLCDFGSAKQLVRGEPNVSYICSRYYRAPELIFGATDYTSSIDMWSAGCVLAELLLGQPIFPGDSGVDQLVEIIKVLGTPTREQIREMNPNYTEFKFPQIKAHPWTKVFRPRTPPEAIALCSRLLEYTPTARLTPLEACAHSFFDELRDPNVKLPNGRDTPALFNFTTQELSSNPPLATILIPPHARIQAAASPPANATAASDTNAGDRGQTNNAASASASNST
CDK9/Cyclin T, sequence (O60563 whole entry): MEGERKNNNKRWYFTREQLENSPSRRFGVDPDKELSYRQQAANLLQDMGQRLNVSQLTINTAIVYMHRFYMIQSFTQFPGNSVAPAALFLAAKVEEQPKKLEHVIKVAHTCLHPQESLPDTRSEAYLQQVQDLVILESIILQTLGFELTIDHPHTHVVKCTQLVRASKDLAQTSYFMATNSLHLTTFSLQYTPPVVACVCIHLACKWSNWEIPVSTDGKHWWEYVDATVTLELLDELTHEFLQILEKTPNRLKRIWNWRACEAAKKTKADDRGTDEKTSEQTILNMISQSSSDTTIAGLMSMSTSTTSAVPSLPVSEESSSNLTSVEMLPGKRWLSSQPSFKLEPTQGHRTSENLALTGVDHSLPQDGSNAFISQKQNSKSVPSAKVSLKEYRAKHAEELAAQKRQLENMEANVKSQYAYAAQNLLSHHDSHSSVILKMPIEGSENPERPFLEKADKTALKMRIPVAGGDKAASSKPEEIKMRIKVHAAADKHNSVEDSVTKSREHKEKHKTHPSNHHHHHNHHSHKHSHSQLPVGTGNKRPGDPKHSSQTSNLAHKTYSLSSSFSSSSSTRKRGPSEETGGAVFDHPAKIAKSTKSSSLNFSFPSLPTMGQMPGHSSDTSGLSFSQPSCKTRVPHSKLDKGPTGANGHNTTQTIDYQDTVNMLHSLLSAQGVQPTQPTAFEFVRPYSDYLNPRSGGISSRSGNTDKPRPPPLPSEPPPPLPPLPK
CDK9/Cyclin T, sequence (P50750 whole entry): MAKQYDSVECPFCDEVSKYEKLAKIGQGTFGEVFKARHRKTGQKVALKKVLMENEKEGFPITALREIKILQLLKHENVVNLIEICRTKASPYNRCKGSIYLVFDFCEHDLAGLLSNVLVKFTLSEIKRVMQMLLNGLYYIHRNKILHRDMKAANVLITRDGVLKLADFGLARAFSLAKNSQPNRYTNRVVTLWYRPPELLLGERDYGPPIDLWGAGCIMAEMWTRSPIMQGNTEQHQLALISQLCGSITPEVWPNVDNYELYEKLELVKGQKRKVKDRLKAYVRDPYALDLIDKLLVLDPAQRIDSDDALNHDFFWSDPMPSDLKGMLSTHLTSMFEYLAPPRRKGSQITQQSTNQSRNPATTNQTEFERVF
CDK9/Cyclin T, sequence (O60583 whole entry, further chain): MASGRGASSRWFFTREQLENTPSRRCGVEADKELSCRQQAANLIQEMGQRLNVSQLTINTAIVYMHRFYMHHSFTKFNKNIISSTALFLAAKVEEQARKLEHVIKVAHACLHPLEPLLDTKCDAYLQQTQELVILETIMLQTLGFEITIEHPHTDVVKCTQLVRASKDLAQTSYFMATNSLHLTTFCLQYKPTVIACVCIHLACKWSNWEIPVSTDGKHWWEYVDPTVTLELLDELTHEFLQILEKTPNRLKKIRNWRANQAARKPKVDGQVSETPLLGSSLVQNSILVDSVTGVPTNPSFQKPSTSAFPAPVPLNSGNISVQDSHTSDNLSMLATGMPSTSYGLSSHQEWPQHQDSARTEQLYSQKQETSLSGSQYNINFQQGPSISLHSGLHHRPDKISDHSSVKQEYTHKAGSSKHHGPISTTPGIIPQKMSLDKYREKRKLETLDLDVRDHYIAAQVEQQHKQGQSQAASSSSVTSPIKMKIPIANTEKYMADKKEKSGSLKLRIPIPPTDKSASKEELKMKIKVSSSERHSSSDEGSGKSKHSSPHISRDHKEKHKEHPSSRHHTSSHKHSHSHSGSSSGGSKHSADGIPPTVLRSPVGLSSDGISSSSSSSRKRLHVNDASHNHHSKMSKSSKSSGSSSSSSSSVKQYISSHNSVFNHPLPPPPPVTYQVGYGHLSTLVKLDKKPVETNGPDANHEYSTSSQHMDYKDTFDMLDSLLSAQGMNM
Aurora kinase B (Homo sapiens), sequence (Q96GD4 whole entry): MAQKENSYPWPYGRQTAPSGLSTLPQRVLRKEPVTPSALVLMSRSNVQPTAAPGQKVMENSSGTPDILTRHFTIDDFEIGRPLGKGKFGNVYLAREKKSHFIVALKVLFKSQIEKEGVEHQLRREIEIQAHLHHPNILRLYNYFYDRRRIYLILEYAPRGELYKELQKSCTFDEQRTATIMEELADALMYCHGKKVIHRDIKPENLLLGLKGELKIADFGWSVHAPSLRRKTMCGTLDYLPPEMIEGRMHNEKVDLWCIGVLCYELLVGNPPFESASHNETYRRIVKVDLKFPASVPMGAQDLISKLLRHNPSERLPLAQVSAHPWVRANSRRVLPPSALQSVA
Serine/threonine-protein kinase pim-1 (Homo sapiens), sequence (P11309 whole entry, looked up): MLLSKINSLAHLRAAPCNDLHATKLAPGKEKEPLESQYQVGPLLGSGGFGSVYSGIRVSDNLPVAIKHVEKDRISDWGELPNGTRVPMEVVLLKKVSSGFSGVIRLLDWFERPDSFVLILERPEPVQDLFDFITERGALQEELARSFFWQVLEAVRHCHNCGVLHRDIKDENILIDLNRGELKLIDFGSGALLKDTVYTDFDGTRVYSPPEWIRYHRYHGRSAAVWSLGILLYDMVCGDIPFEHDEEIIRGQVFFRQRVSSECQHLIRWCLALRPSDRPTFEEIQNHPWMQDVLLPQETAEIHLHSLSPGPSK

## O=C1NCc2ccccc2-c2c1[nH]c1ccccc21
MCF7 [1]
  IC50: 600 nM
MDA-MB-231
  IC50: 600 nM

## Cc1ccc2[nH]c3c(c2c1)CNC(=O)c1[nH]c2ccccc2c1-3
A549
  IC50: 4.2 µM

## NC1=N/C(=C2/CCNC(=O)c3[nH]ccc32)C(=O)N1 [DEBROMOHYMENIALDISINE]
[2]
  IC50: 250 nM
[3]
  IC50: 820 nM
Protein kinase C (PKC)
  IC50: < 10 µM
[4]
  IC50: 112 nM
L5178Y
  EC50: 1.8 µg/mL (≈ 7.34 µM)
Rattus norvegicus [5]
  inhibition in vivo at 20 mg/kg: > 60%
Rattus norvegicus [6]
  inhibition in vivo at 10 mg/kg: 63%
Homo sapiens [7]
  Ratio IC50: 4

## CCCNC1=NC(=O)/C(=C2\CCNC(=O)c3[nH]c(-c4ccccc4)cc32)N1
[8]
  IC50: > 1000 nM
Homo sapiens [7]
  Ratio IC50: > 64

## O=C1Cc2c([nH]c3ccc([N+](=O)[O-])cc23)-c2ccccc2N1 [ALSTERPAULLONE]
[9]
  IC50: > 100 µM
[10]
  IC50: > 10 µM
[11]
  IC50: > 10 µM
[12]
  IC50: 7 µM
[13]
  IC50: > 100 µM

## O=C1NC(=O)/C(=C2/CCNC(=O)c3[nH]c(Br)cc32)N1
P388
  EC50: 18 µg/mL (≈ 55.4 µM)

## O=C1Cc2c([nH]c3cc[n+]([O-])cc23)-c2ccccc2N1
[2]
  IC50: > 10000 nM
[14]
  IC50: > 10 µM
Casein kinase I
  IC50: > 10 µM
[4]
  IC50: > 10000 nM
CDK9/Cyclin T
  IC50: 7.4 µM
[15]
  IC50: > 10 µM

## NC1=NC(=O)/C(=C2\CCNC(=O)c3[nH]c(Br)cc32)N1 [HYMENIALDISINE]
CDK1/Cyclin E
  IC50: 40 nM
CDK3/Cyclin E
  IC50: 100 nM
[16]
  IC50: 470 nM
[9]
  IC50: 1.2 µM
Casein kinase I
  IC50: 0.035 µM
Casein kinase 2
  IC50: 7 µM
[10]
  IC50: 0.6 µM
[4]
  IC50: 25 nM
CDK6/cyclin D2
  IC50: 700 nM
[12]
  IC50: 8 µM
[13]
  IC50: 1.7 µM
[17]
  IC50: 7 µM
[18]
  IC50: 4 µM
DNA topoisomerase 1
  IC50: 10 µM
[19]
  IC50: 10 µM
L5178Y
  EC50: 3.5 µg/mL (≈ 10.8 µM)
KB 3-1
  IC50: 3.1 µM
[20]
  IC50: 600 nM
Bos taurus [21]
  IC50: 600 nM
Bos taurus [22]
  IC50: 800 nM
THP-1 [23]
  IC50: 2400 nM
THP-1 [24]
  IC50: 1.4 µM
[25]
  inhibition at 3.1 µM: 30%
[26]
  inhibition: 90%
Mus musculus [27]
  Activity: 120%

## O=C1Cc2c([nH]c3ccc(Br)cc23)-c2ccccc2N1 [KENPAULLONE]
[9]
  IC50: > 100 µM
[10]
  IC50: > 100 µM
[11]
  IC50: 38 µM
[12]
  IC50: > 1000 µM
[13]
  IC50: > 1000 µM

## CCOC(=O)c1[nH]cc2c1-c1[nH]c3ccccc3c1C(=O)NC2
[28]
  inhibition: 78%

## O=C1Cc2c([nH]c3cc[n+](Cc4ccccc4)cc23)-c2ccccc2N1.[Br-]
[14]
  IC50: 6.2 µM
Casein kinase I
  IC50: > 10 µM
[4]
  IC50: 7300 nM
CDK9/Cyclin T
  IC50: 0.24 µM
[15]
  IC50: > 10 µM

## O=C1Nc2ccccc2/C1=C1/Nc2ccccc2/C1=N\O
[29]
  IC50: 22 nM

## O=C1NCCc2ccccc2-c2c1[nH]c1ccccc21
HepG2
  IC50: 460 nM
MOLT-3
  IC50: 9 nM
Tubulin
  IC50: 7.7 µM

## NCCCCOc1ccc2c(c1)-c1[nH]c3ccc(Br)cc3c1CC(=O)N2
[29]
  IC50: 40 nM

## CCOC(=O)c1cc2c([nH]1)-c1[nH]c3ccccc3c1C(=O)NC2
Homo sapiens [30]
  inhibition: 50%
[31]
  inhibition: 50%
[32]
  inhibition: 50%
[33]
  inhibition: 50%
[34]
  inhibition: 50%
[35]
  inhibition: 50%

## Nc1ncc(/C=C/CNC(=O)c2cc(Br)c(Br)[nH]2)[nH]1 [OROIDIN]
[36]
  inhibition at 50 µM: 50%

## O=C1Cc2c([nH]c3ccc(Br)cc23)-c2cccnc2N1
[4]
  IC50: 6000 nM
[37]
  Selectivity Index: 1.4

## O=C1NCc2ccccc2-c2c1sc1ccccc21
MCF7 [38]
  inhibition of growth at 1 µM: 17%

## Nc1nc(C2CCNC(=O)c3[nH]c(Br)c(Br)c32)c[nH]1 (stereo not given)
Mus musculus [39]
  Activity: 120%
Rattus norvegicus [40]
  inhibition in vivo at 5 mg/kg: 90%

## COc1ccc2c3c([nH]c2c1)C(=O)NCc1ccccc1-3
MCF7 [1]
  IC50: 4000 nM
MDA-MB-231
  IC50: 4000 nM

## NC1=NC(=O)/C(=C2\CCNC(=O)c3[nH]c4ccccc4c32)N1
[2]
  IC50: 800 nM
[4]
  IC50: 177 nM
THP-1 [23]
  IC50: 3500 nM
THP-1 [24]
  IC50: 8.2 µM
Homo sapiens [7]
  Ratio IC50: 29
